# Laboratory results published in PMC8480782, “Efficient Dimerization Disruption of Leishmania infantum Trypanothione Reductase by Triazole-phenyl-thiazoles” (Journal of Medicinal Chemistry, 2021).
# Where two headings read alike, the source gives them in different places.
# How the values were obtained:
# [1] = target: T1, LiTryR (Leishmania infantum, UniProt A4HSF7); experiment: biochemical; format: biochemical; settings: LiTryR; 1 μM TS2; maximum assayed 75 μM; read-out: IC50^act, TryR oxidoreductase activity
# T1 construct: HIS (N); made in house; host or cells: E. coli BL21 (DE3) Rossetta
# Protocol: A concentration of 1 μM TS2 was used for this initial screening. This low substrate concentration is sufficient for comparison of compound inhibitory activity in the oxidoreductase assay.
# Recombinant L. infantum TryR (LiTryR) HIS-tagged and HIS-FLAG-tagged versions were used for all LiTryR oxidoreductase activity and dimer quantitation assays. These LiTryR versions were purified from Escherichia coli as previously described.[25] Briefly, pRSETA-HIS-LiTryR construct alone or in combination with the pET24a-FLAG-LiTryR construct was transformed into BL21 (DE3) Rossetta E. coli strain. An overnight E. coli culture grown at 37 °C in Luria–Bertani (LB) medium with the appropriate antibiotics and vigorous shaking was diluted (1:100) in the same medium and allowed to grow in the same conditions until the OD600 was 0.5. Then, LiTryR expression was induced by addition of 1 mM isopropyl-β-D-1-thiogalactopyranoside (IPTG) for 16 h at 26 °C. The cells were centrifuged for 5 min at 9000g and 4 °C and the wet pellet resuspended in lysis buffer (50 mM Tris, pH 7, 300 mM NaCl, 25 mM imidazole, protease inhibitor cocktail, and 1 mg/mL lysozyme). […] The supernatant was sonicated again as previously described for 10 min and loaded on a HisTrap column (GE Healthcare, Chicago, IL) for 16 h at 4 °C using a P-1 peristaltic pump (GE Healthcare, Chicago, IL). Once loaded, the HisTrap column was connected to an ÄKTA purifier UPC 10 (GE Healthcare, Chicago, IL) and washed using a 5–10% gradient between buffer A (50 mM Tris, pH 7 and 300 mM NaCl) and B (50 mM Tris, pH 7, 300 mM NaCl, and 500 mM imidazole). LiTryR was eluted using a 40% gradient between buffers A and B. Fractions containing recombinant LiTryR were pooled and loaded into a HiPrep 26/10 Desalting column (GE Healthcare, Chicago, IL) previously equilibrated with buffer A. Finally, LiTryR was concentrated to 2 mg/mL using an Amicon Ultra-15 50K (Merck Millipore, Burlington, MA) and an equal volume of glycerol was added before storing at −20 °C.
# TryR oxidoreductase activity was determined spectrophotometrically using a modified version of the DTNB-coupled assay described by Hamilton et al.[52] Briefly, reactions were carried out at 26 °C in 250 μL of N-(2-hydroxyethyl)piperazine-N′-ethanesulfonic acid (HEPES) buffer (pH 7.5, 40 mM) containing ethylenediaminetetraacetic acid (EDTA) (1 mM), NADP^+ (30 μM), DTNB (25 μM), TS2 (1 μM), NADPH (150 μM), glycerol (0.02%), DMSO (1.75%), and recombinant TryR (7 nM). […] Reactions were started by addition of a mixture of NADPH and TS2.
# TryR oxidoreductase activity was monitored at 26 °C by an increase in absorbance at 412 nm in an EnSpire Multimode Plate Reader (PerkinElmer, Waltham, MA). […] (TNB) concentration was obtained by multiplying the absorbance values by 100 (50 μM TNB generates 0.5 arbitrary units of absorbance at 412 nm). In this DTNB-coupled assay, one molecule of T(SH)2 reduces one molecule of DTNB, producing two TNB molecules. All of the assays were conducted in at least three independent experiments. Data were analyzed using a nonlinear regression model with GraFit 6 software (Erithacus, Horley, Surrey, U.K.).
# [2] = tested on: L. infantum axenic amastigotes; experiment: Leishmanicidal activity on axenic amastigotes (PI exclusion, flow cytometry); format: cell-based, Leishmania infantum; settings: for SIa (ratio of EC50 against human cells to EC50 against amastigotes): HepG2 / axenic amastigotes; for EC50: Leishmania infantum, axenic amastigotes, 24 h at 37 °C, read-out: EC50 amastigotes
# Protocol: (§1) L. infantum promastigotes (MCAN/ES/89/IPZ229/1/89) were grown in Roswell Park Memorial Institute (RPMI)-1640 medium (Sigma-Aldrich, St. Louis, MO) supplemented with 10% heat-inactivated fetal calf serum (FCS), antibiotics, and 25 mM HEPES (pH 7.2) at 26 °C. L. infantum axenic amastigotes (MCAN/ES/89/IPZ229/1/89) were grown in M199 medium (Invitrogen, Leiden, The Netherlands) supplemented with 10% heat-inactivated FCS, 1 g/L β-alanine, 100 mg/L L-asparagine, 200 mg/L sucrose, 50 mg/L sodium pyruvate, 320 mg/L malic acid, 40 mg/L fumaric acid, 70 mg/L succinic acid, 200 mg/L α-ketoglutaric acid, 300 mg/L citric acid, 1.1 g/L sodium bicarbonate, 5 g/L morpholineethanesulfonic acid (MES), 0.4 mg/L hemin, and 10 mg/L gentamicine, pH 5.4, at 37 °C.
# Axenization was performed by diluting 0.5 mL of a 7-day stationary phase culture of L. infantum promastigotes (2–3 × 10^7 parasites/mL) in 4.5 mL of amastigotes medium and incubating the culture at 37 °C for 2 or 3 days. L. infantum axenic amastigotes apparition was followed by phase-contrast microscopy using an Eclipse Ti inverted microscope (Nikon, Tokyo, Japan).
# (§2) Drug treatment of L. infantum promastigotes was performed during the logarithmic growth phase at a concentration of 2 × 10^6 parasites/mL at 26 °C for 24 h. […] EC50 was evaluated by flow cytometry by the propidium iodide (PI) exclusion method. After selection of the parasite population based on their forward scatter (FSC) and side scatter (SSC) values, live and dead parasite cells were identified by their permeability to PI. All of the assays were conducted in triplicate in at least three independent experiments. Data were analyzed using a nonlinear regression model with GraFit 6 software (Erithacus, Horley, Surrey, U.K.).
# [3] = target: T2, LiTryR dimer (Leishmania infantum, UniProt A4HSF7); experiment: biochemical; settings: 400 nM LiTryR, 16 h at 37 °C; read-out: IC50^dim, LiTryR monomer displacement (dimer quantitation ELISA)
# T2 construct: made in house; host or cells: E. coli BL21 (DE3) Rossetta (co-transformed with both plasmids)
# Protocol: The stability of the LiTryR dimeric form in the presence of 1,2,3-triazole-phenyl-thiazole-based compounds was evaluated using the novel enzyme-linked immunosorbent assay (ELISA) developed in our laboratory.[25] […] Next, the different solutions were centrifuged at 18 000g for 15 min at room temperature. The supernatants (200 μL/well) were added to the α-FLAG-coated plates (Sigma-Aldrich, St. Louis, MO) and incubated for 30 min at 37 °C with agitation in a humid atmosphere. The plates were washed five times with TTBS buffer (2 mM Tris, pH 7.6, 138 mM NaCl, and 0.1% Tween-20) and incubated with diluted monoclonal α-HIS horseradish peroxidase (HRP)-conjugated antibody (200 μL, 1:50 000, Abcam, Cambridge, U.K.) in fatty acid- and essentially globulin-free bovine serum albumin (BSA) (5%) prepared in TTBS buffer for 1 h at room temperature. The plates were washed five times, and o-phenylenediamine dihydrochloride (OPD) substrate prepared according to the manufacturer’s instructions was added. The enzymatic reaction was stopped after 5 min with H2SO4 (100 μL, […]), and the absorbances were measured at 490 nm in an EnSpire Multimode Plate Reader (PerkinElmer, Waltham, MA). All of the assays were conducted in triplicate in at least three independent experiments. Data were analyzed using a nonlinear regression model with GraFit 6 software (Erithacus, Horley, Surrey, U.K.).
# [4] = tested on: HepG2 cells; experiment: Cellular toxicity, crystal violet assay; format: cell-based; settings: Homo sapiens, HepG2; 24 h, crystal violet method; read-out: EC50 HepG2
# Protocol: Liver hepatocellular carcinoma HepG2 cells were grown in Dulbecco’s modified Eagle’s medium (DMEM) (Sigma-Aldrich, St. Louis, MO) with 10% heat-inactivated FCS, antibiotics, and 10 mM HEPES.
# Drug treatment of liver hepatocellular carcinoma HepG2 cells was performed at a concentration of 10^5 cells/mL at 37 °C and 5% CO2 for 24 h. EC50 was evaluated by the crystal violet assay. Briefly, cells were washed with phosphate-buffered saline (PBS) and stained with 200 μL of crystal violet solution (0.2% crystal violet, 2% ethanol) for 10 min at room temperature. Next, the plates were washed twice with tap water and allowed to dry. The stained cells were solubilized with 400 μL of 1% sodium dodecyl sulfate (SDS), and the color intensity was quantified at 570 nm using an EnSpire Multimode Plate Reader (PerkinElmer, Waltham, MA). All of the assays were conducted in triplicate in at least three independent experiments. Data were analyzed using a nonlinear regression model with GraFit 6 software (Erithacus, Horley, Surrey, U.K.).
# [5] = tested on: L. infantum promastigotes; experiment: Leishmanicidal activity on promastigotes (PI exclusion, flow cytometry); format: cell-based, Leishmania infantum; settings: Leishmania infantum; promastigotes or amastigotes (either form); read-out: EC50 against Leishmania promastigotes or amastigotes
# Protocol: as §1, §2
# [6] = tested on: THP-1 monocyte-derived macrophages; experiment: Cytotoxicity in THP-1 monocyte-derived macrophages (LDH activity); format: cell-based, human; settings: LDH activity
# Protocol: THP-1 cells were grown in RPMI-1640 medium (Gibco, Leiden, The Netherlands) supplemented with 10% heat-inactivated FCS, antibiotics, 10 mM HEPES, 2 mM glutamine, and 1 mM sodium pyruvate, pH 7.2, at 37 °C and 5% CO2.
# (§3) THP-1 monocytes were seeded in a 48-well plate at a concentration of 5 × 10^5 cells/mL (250 μL/well) in RPMI complete medium supplemented with phorbol 12-myristate 13-acetate (PMA) (100 ng/mL). Differentiation of THP-1 monocytes to macrophages was allowed for 24 h at 37 °C and 5% CO2. THP-1-derived macrophages were infected with GFP-expressing axenic amastigotes at 5 × 10^6 parasites/mL in RPMI complete medium for 24 h (250 μL/well). Extracellular amastigotes were washed twice with PBS. The remaining extracellular parasites were challenged for 24 h with THP-1 medium supplemented with 10% horse serum (Gibco) instead of FCS. Cells were washed twice with PBS, and treatments were performed in 250 μL of fresh RPMI medium supplemented with 10% horse serum for 72 h at 37 °C and 5% CO2. Afterward, treatments were removed by two PBS washes. Lysis of infected cells was performed with 120 μL of SDS 0.005% (w/v) in PBS. After a 30 min incubation at 37 °C, lysis was stopped by adding RPMI complete medium with PI at 20 μg/mL (120 μL/well). The lysates were transferred to a 96-well plate (200 μL/well), and the GFP^+ amastigotes extracted from the infected cells were acquired by a Beckman Coulter FC500 flow cytometer. Each sample (100 μL) was acquired for 20 s.
# Cytotoxicity of THP-1 infected macrophages was determined using an in-house developed lactate dehydrogenase (LDH) activity assay. LDH activity assays from the remaining cell lysates (100 μL/well) were carried out at 37 °C in 250 μL of Tris/HCl buffer (pH 8.9, 50 mM) containing DL-lactate (840 mM), NAD^+ (450 μM), 1-methoxyphenazine methosulfate (45 μM), and nitro blue tetrazolium chloride (40 μM). The color intensity of the generated formazan dye was monitored at 570 nm using an EnSpire Multimode Plate Reader (PerkinElmer, Waltham, MA). CC50 values were calculated using a nonlinear regression model with GraFit 6 software (Erithacus, Horley, Surrey, U.K.).
# [7] = tested on: L. infantum intracellular amastigotes; experiment: Leishmanicidal activity in amastigote-infected THP-1 monocyte-derived macrophages; format: cell-based, Leishmania infantum; settings: for EC50: amastigote-infected THP-1 macrophages, 72 h, read-out: EC50 intracellular amastigotes
# Protocol: as §3
# The relative number of GFP^+ intracellular amastigotes per cell in each sample was estimated after the division of the total number of GFP+ amastigotes by the LDH activity value of the sample. Results were normalized to the vehicle-treated controls. EC50 values of intracellular amastigotes were calculated using a nonlinear regression model with GraFit 6 software (Erithacus, Horley, Surrey, U.K.). All of the assays were conducted in at least three independent experiments.
# T1 sequence (A4HSF7 1-491): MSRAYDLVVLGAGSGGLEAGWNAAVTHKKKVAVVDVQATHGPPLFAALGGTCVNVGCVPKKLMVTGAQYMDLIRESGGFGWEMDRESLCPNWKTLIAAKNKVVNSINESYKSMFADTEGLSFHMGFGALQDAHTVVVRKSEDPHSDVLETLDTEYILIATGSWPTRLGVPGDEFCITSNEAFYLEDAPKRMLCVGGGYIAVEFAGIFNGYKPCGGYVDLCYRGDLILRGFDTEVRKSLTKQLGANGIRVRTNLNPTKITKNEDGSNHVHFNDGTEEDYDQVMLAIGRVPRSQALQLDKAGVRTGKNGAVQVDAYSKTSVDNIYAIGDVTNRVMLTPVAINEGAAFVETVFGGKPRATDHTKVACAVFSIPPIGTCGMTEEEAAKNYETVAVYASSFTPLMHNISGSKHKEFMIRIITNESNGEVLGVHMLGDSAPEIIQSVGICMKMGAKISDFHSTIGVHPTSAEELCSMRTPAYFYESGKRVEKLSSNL
# T2 sequence (A4HSF7 1-491): as above
Molecule,IC50 [1],SIa (ratio of EC50 against human cells to EC50 against amastigotes) [2],EC50 [2],IC50 [3],EC50 [4],EC50 [5],"EC50 ([6]; Homo sapiens, THP-1)","EC50 ([7]; Leishmania infantum, THP-1, 72 h)",EC50 [6],SI (intracellular amastigotes) ([7]; THP-1 / intracellular amastigotes),EC50 [7]
"NCCCCc1cn(-c2ccc(-c3nc(CCc4ccc(-c5ccccc5)cc4)c(-c4ccccc4)s3)c(OCCN3CCNC3=O)c2)nn1.O=C(O)C(F)(F)F [19d, 1-(2-(2-(4-(2-([1,1′-Biphenyl]-4-yl)ethyl)-5-phenyl-thiazol-2-yl)-5-(4-(4-ammoniobutyl)-1H-1,2,3-triazol-1-yl)phenoxy)ethyl)imidazolidin-2-one 2,2,2-Trifluoroacetate]",19.8 ± 2.3 µM,ND/1.3,9.1 ± 0.2 µM,5.7 ± 0.5 µM,12.1 ± 0.1 µM,< 10 µM,,,,,
"NCCCCc1cn(-c2ccc(-c3nc(CCc4ccc(Oc5ccccc5)cc4)c(-c4ccccc4)s3)c(OCCN3CCNC3=O)c2)nn1.O=C(O)C(F)(F)F [19e, 1-(2-(2-(4-(2-([4-Phenyloxyphenyl]-1-yl)ethyl)-5-phenyl-thiazol-2-yl)-5-(4-(4-ammoniobutyl)-1H-1,2,3-triazol-1-yl)phenoxy)ethyl)imidazolidin-2-one 2,2,2-Trifluoroacetate]",19.3 ± 3.7 µM,ND/<1,8.4 ± 0.1 µM,6.7 ± 1 µM,6.6 ± 0.6 µM,< 10 µM,,,,,
"C[C@@H]1[C@H](O)[C@@H](C)/C=C/C=C/C=C/C=C/C=C/C=C/C=C/[C@H](O[C@@H]2O[C@H](C)[C@@H](O)[C@H](N)[C@@H]2O)C[C@@H]2O[C@](O)(C[C@@H](O)C[C@@H](O)[C@H](O)CC[C@@H](O)C[C@@H](O)CC(=O)O[C@H]1C)C[C@H](O)[C@H]2C(=O)O [amphotericin B, reference compound]",,,,,,,> 5 µM,0.07 ± 0.01 µM,,,
edelfosine [reference compound],,,,,,,,,3.5 ± 0.3 µM,1.4,2.5 ± 0.02 µM
